Experimental findings from US11472778B2, “Hepatitis C virus NS3/4A protease inhibitors” (priority 2017, dated 2022) are described below.

Common to all, as to format: biochemical, Hepatitis C virus
For assay [1], the target named is T1, GT1a D168A NS3/4A protease (UniProt P27958, C1185S/D1194A, species not given).
T1 construct: P4/P4-P5 modified macrocycles
Conditions: read-out: Ki (nM) D168A; Table 6; P4/P4-P5 modified macrocycles. An outline of the steps:
(§1)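 NS3/4A protease (2 nM; wild-type GT1a or D168A) pre-incubated 1 h at room temperature with increasing inhibitor in 50 mM Tris pH 7.5, 5% glycerol, 10 mM DTT, 0.6 mM LDAO, 4% DMSO. Ki from three independent data sets per construct; ΔG=RTlnKi.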

Assay [2] has as its target GT1a D168A NS3/4A protease. Conditions: Table 6; with respect to GT1a wild-type. An outline of the steps:
as §1

Assay [3] concerns the target T2, wild-type GT1a NS3/4A protease (UniProt P27958, C1185S, species not given).
T2 construct: P4/P4-P5 modified macrocycles
The settings on record: read-out: Ki (nM) GT1a WT; Table 6; P4/P4-P5 modified macrocycles. An outline of the steps: as §1

As a reminder, the Ki is a dissociation constant, usually derived from enzyme kinetics or from competition with a known ligand. `COc1ccc2nc(C)c(O[C@@H]3C[C@H]4C(=O)N[C@]5(C(=O)NS(=O)(=O)C6(C)CC6)C[C@H]5/C=C\CCCCC[C@H](NC(=O)OC5(C)CCCC5)C(=O)N4C3)nc2c1` [Compound P4-3, 1-methylcyclopentyl ((2R,6S,13aS,14aR,16aS,Z)-2-((7-methoxy-3-methylquinoxalin-2-yl)oxy)-14a-(((1-methylcyclopropyl)sulfonyl)carbamoyl)-5,16-dioxo-1,2,3,5,6,7,8,9,10,11,13a,14,14a,15,16,16a-hexadecahydrocyclopropa[e]pyrrolo[1,2-a][1,4]diazacyclopentadecin-6-yl)carbamate]: the Ki in assay [1] was 16 nM; in assay [3], 1.78 ± 0.3 nM. The “Ki (Fold Change) D168A” value in assay [2] is recorded as “(9) fold”.
On to `COC(=O)N[C@H](C(=O)N[C@H]1CCCCC/C=C\[C@@H]2C[C@@]2(C(=O)NS(=O)(=O)C2(C)CC2)NC(=O)[C@@H]2C[C@@H](Oc3nc4cc(OC)ccc4nc3C)CN2C1=O)C(C)(C)C` [Compound P4-P5-1, Methyl ((S)-1-(((2R,6S,13aS,14aR,16aS,Z)-2-((7-methoxy-3-methylquinoxalin-2-yl)oxy)-14a-(((1-methylcyclopropyl)sulfonyl)carbamoyl)-5,16-dioxo-1,2,3,5,6,7,8,9,10,11,13a,14,14a,15,16,16a-hexadecahydrocyclopropa[e]pyrrolo[1,2-a][1,4]diazacyclopentadecin-6-yl)amino)-3,3-dimethyl-1-oxobutan-2-yl)carbamate], for which the Ki was determined as 201 ± 15 nM in assay [1] and 29.5 nM in assay [3]. In addition, the “Ki (Fold Change) D168A” value in assay [2] is given as “(8) fold”.
For the compound `COc1ccc2nc(C)c(O[C@@H]3C[C@H]4C(=O)N[C@]5(C(=O)NS(=O)(=O)C6(C)CC6)C[C@H]5/C=C\CCCCC[C@H](NC(=O)[C@@H](NC(C)=O)C(C)(C)C)C(=O)N4C3)nc2c1` [Compound P4-P5-2], the Ki came out at 215 ± 16 nM in assay [1] and 23.9 ± 1.7 nM in assay [3]. Further, in assay [2], the “Ki (Fold Change) D168A” value is “(9) fold”.
`COC(=O)N[C@H](C(=O)N[C@H]1CCCCC/C=C\[C@@H]2C[C@@]2(C(=O)NS(=O)(=O)C2(C)CC2)NC(=O)[C@@H]2C[C@@H](Oc3nc4cc(OC)ccc4nc3C)CN2C1=O)C(C)C` [Compound P4-P5-3, Methyl ((S)-1-(((2R,6S,13aS,14aR,16aS,Z)-2-((7-methoxy-3-methylquinoxalin-2-yl)oxy)-14a-(((1-methylcyclopropyl)sulfonyl)carbamoyl)-5,16-dioxo-1,2,3,5,6,7,8,9,10,11,13a,14,14a,15,16,16a-hexadecahydrocyclopropa[e]pyrrolo[1,2-a][1,4]diazacyclopentadecin-6-yl)amino)-3-methyl-1-oxobutan-2-yl)carbamate]: the Ki came out at 102 ± 6.8 nM in assay [1] and 13 ± 0.8 nM in assay [3]. The “Ki (Fold Change) D168A” value in assay [2] was “(8) fold”.
In the same order, the values of `COc1ccc2nc(C)c(O[C@@H]3C[C@H]4C(=O)N[C@]5(C(=O)NS(=O)(=O)C6(C)CC6)C[C@H]5/C=C\CCCCC[C@H](NC(=O)[C@@H](NC(C)=O)C(C)C)C(=O)N4C3)nc2c1` [Compound P4-P5-4] are 141 ± 18 nM, 11.1 ± 0.5 nM and “(13) fold”.
Consider `COC(=O)N[C@H](C(=O)N[C@H]1CCCCC/C=C\[C@@H]2C[C@@]2(C(=O)NS(=O)(=O)C2(C)CC2)NC(=O)[C@@H]2C[C@@H](Oc3nc4cc(OC)ccc4nc3C)CN2C1=O)C1CCCC1` [Compound P4-P5-5, Methyl ((S)-1-cyclopentyl-2-(((2R,6S,13aS,14aR,16aS,Z)-2-((7-methoxy-3-methylquinoxalin-2-yl)oxy)-14a-(((1-methylcyclopropyl)sulfonyl)carbamoyl)-5,16-dioxo-1,2,3,5,6,7,8,9,10,11,13a,14,14a,15,16,16a-hexadecahydrocyclopropa[e]pyrrolo[1,2-a][1,4]diazacyclopentadecin-6-yl)amino)-2-oxoethyl)carbamate], for which the Ki in assay [1] amounted to 31.6 ± 2.1 nM; in assay [3] it was 3.54 ± 0.13 nM. For the same compound, the “Ki (Fold Change) D168A” value in assay [2] is reported as “(9) fold”.
With `CC[C@H](C)[C@H](NC(C)=O)C(=O)N[C@H]1CCCCC/C=C\[C@@H]2C[C@@]2(C(=O)NS(=O)(=O)C2(C)CC2)NC(=O)[C@@H]2C[C@@H](Oc3nc4cc(OC)ccc4nc3C)CN2C1=O` [Compound P4-P5-6, (2R,6S,13aS,14aR,16aS,Z)-6-((2S,3S)-2-acetamido-3-methylpentanamido)-2-((7-methoxy-3-methylquinoxalin-2-yl)oxy)-N-((1-methylcyclopropyl)sulfonyl)-5,16-dioxo-1,2,3,6,7,8,9,10,11,13a,14,15,16,16a-tetradecahydrocyclopropa[e]pyrrolo[1,2-a][1,4]diazacyclopentadecine-14a(5H)-carboxamide], the Ki is 81 ± 11 nM in assay [1] and 7.1 ± 0.24 nM in assay [3]. In assay [2], the “Ki (Fold Change) D168A” value is given as “(11) fold”.
